The text below walks through data of ChEMBL document CHEMBL5715954, “Silencing c-Myc translation as a therapeutic strategy through targeting PI3Kδ and CK1ε in hematological malignancies” (Blood, 2017).

The structures appear in SMILES notation.

Parameters in all cases: scale not given: the % may be the effect or the level left
Assay [1] deals with Mitogen-activated protein kinase 7 (Homo sapiens) (UniProt Q13164). Description: Inhibition of human ERK5 assessed as enzyme activity at 1 uM using myelin basic protein as substrate preincubated for 20 mins followed by [gamma-33P]-ATP addition and measured after 120 mins by radiometric Hot-SpotSM Kinase assay relative to control.
Assay [2] deals with T1, Ephrin type-B receptor 3 (Homo sapiens) (UniProt P54753).
T1 sequence (whole entry): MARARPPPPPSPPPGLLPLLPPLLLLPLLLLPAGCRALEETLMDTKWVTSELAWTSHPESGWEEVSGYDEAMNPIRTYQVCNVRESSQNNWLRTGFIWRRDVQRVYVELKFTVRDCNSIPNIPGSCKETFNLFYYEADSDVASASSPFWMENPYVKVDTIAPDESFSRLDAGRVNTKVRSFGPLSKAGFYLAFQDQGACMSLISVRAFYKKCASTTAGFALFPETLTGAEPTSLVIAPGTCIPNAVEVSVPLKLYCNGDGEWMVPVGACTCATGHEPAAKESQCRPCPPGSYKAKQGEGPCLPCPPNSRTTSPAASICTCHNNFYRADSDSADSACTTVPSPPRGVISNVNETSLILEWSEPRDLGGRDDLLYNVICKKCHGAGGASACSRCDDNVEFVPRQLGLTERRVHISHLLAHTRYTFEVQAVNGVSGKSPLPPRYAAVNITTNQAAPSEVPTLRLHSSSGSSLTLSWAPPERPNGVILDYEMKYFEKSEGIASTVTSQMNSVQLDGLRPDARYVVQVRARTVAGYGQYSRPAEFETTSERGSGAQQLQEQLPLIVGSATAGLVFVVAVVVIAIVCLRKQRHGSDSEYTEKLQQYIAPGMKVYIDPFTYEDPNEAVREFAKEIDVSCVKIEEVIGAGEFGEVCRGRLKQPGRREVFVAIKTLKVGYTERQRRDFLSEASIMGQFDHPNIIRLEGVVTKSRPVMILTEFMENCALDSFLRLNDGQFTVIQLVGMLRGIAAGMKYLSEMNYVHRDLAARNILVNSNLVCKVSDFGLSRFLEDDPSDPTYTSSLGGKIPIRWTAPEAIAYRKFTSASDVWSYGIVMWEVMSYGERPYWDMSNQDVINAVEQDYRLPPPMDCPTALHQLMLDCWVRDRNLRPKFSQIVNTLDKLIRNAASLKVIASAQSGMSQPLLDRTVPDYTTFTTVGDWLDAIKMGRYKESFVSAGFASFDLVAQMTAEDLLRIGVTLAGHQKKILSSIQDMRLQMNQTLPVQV
Description: Inhibition of human EPHB3 assessed as enzyme activity at 1 uM using poly[Glu:Tyr] (4:1) as substrate preincubated for 20 mins followed by [gamma-33P]-ATP addition and measured after 120 mins by radiometric Hot-SpotSM Kinase assay relative to control.

Assay [3] deals with Calcium/calmodulin-dependent protein kinase type II subunit gamma (Homo sapiens) (UniProt Q13555). Description: Inhibition of human CAMK2g assessed as enzyme activity at 1 uM using KKLNRTLSFAEPG as substrate preincubated for 20 mins followed by [gamma-33P]-ATP addition and measured after 120 mins by radiometric Hot-SpotSM Kinase assay relative to control.
Assay [4] addresses T2, Serine/threonine-protein kinase BRSK2 (Homo sapiens) (UniProt Q8IWQ3).
T2 sequence (whole entry): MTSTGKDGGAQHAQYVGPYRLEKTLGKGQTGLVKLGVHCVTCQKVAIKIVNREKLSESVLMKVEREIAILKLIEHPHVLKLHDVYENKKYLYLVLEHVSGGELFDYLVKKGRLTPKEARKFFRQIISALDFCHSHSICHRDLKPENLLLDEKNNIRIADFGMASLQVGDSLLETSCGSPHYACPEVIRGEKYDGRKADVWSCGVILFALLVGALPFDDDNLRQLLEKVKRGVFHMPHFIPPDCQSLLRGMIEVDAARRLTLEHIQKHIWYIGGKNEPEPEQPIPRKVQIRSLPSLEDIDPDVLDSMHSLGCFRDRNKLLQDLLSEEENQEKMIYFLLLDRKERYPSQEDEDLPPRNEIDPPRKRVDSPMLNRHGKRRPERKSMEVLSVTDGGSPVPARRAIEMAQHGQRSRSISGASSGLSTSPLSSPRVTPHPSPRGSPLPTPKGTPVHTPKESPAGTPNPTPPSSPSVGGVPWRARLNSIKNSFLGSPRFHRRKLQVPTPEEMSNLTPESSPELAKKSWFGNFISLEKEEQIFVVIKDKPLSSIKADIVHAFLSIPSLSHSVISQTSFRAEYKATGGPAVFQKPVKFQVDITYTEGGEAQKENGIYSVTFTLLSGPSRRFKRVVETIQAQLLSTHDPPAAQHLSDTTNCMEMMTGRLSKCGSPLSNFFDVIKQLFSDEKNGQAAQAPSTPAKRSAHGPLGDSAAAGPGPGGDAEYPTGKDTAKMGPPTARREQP
Description: Inhibition of human BRSK2 assessed as enzyme activity at 1 uM using KKLNRTLSFAEPG as substrate preincubated for 20 mins followed by [gamma-33P]-ATP addition and measured after 120 mins by radiometric Hot-SpotSM Kinase assay relative to control.

The target in assay [5] is T3, Rhodopsin kinase GRK1 (Homo sapiens) (UniProt Q15835).
T3 sequence (whole entry): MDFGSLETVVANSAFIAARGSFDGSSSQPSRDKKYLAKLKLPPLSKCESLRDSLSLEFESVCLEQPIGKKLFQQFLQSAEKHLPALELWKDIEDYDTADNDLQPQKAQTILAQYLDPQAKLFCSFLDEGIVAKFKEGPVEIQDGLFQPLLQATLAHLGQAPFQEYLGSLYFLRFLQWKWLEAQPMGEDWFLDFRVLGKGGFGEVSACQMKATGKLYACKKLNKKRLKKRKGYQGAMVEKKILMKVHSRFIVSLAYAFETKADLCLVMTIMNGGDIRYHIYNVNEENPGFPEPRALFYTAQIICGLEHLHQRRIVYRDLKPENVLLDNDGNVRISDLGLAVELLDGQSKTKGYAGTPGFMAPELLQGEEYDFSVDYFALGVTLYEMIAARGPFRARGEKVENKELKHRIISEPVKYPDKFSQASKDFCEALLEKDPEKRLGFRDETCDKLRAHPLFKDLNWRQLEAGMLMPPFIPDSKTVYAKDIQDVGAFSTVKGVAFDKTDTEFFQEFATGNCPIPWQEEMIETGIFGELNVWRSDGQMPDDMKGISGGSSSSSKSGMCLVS
Description: Inhibition of human GRK1 assessed as enzyme activity at 1 uM using casein as substrate preincubated for 20 mins followed by [gamma-33P]-ATP addition and measured after 120 mins by radiometric Hot-SpotSM Kinase assay relative to control.

Assay [6] deals with G protein-coupled receptor kinase 5 (Homo sapiens) (UniProt P34947). Kind of assay: Inhibition of human GRK5 assessed as enzyme activity at 1 uM using casein as substrate preincubated for 20 mins followed by [gamma-33P]-ATP addition and measured after 120 mins by radiometric Hot-SpotSM Kinase assay relative to control.
Chain of G protein-coupled receptor kinase 5 (Homo sapiens) (P34947 whole entry, looked up): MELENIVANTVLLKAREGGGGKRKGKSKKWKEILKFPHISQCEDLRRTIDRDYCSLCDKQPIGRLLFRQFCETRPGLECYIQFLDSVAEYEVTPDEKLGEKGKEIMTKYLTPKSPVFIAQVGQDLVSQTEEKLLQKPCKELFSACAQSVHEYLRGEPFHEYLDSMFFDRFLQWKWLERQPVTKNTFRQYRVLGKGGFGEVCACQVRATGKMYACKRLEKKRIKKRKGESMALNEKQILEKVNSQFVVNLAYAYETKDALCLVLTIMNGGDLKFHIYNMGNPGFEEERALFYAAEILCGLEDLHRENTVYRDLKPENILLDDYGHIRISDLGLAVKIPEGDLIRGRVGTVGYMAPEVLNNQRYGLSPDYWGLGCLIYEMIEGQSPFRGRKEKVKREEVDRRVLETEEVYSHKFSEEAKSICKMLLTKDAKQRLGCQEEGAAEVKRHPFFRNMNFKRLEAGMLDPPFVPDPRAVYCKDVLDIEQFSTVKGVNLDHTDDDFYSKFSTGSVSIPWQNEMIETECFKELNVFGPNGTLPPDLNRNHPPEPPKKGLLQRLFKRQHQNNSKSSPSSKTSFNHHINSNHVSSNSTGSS

Chain of Calcium/calmodulin-dependent protein kinase type II subunit gamma (Homo sapiens) (Q13555 whole entry): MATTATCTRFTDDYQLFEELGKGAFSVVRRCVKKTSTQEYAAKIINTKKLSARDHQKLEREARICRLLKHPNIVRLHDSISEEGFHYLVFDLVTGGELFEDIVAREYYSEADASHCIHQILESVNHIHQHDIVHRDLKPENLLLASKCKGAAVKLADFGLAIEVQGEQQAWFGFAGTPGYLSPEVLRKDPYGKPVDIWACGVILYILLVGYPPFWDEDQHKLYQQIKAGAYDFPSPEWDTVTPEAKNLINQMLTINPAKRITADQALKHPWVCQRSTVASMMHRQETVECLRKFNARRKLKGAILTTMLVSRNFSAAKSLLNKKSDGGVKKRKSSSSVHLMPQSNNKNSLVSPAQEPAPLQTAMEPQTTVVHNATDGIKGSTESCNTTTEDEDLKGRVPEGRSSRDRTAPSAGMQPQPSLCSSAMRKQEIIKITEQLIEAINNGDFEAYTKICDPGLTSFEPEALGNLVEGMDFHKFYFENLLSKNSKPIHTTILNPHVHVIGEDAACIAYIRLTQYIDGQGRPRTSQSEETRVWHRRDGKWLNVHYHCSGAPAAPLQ
Chain of Mitogen-activated protein kinase 7 (Homo sapiens) (Q13164 2-816 limits assumed): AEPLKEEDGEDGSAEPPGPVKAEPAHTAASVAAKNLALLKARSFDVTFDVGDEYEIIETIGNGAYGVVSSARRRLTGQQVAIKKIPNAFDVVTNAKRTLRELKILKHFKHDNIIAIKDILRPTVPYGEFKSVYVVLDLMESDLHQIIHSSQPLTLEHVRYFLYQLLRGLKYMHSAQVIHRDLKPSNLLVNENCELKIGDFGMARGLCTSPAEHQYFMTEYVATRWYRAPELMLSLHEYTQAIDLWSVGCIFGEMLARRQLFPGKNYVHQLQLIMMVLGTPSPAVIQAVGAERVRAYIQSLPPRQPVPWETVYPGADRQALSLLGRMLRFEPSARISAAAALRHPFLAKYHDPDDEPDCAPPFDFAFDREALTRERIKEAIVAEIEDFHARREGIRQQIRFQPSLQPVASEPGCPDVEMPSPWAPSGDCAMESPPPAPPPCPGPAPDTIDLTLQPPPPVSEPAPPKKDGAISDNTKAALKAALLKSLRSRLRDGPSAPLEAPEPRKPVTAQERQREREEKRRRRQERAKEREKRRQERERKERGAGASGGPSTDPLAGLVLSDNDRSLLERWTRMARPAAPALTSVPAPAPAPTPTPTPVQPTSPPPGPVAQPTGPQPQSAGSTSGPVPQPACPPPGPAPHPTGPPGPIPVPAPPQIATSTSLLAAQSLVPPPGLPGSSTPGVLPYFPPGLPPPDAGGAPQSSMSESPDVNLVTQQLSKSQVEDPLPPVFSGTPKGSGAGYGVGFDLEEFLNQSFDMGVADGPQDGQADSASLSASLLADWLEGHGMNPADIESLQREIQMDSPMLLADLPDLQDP

Consider `C[C@H](Nc1ncnc2nc[nH]c12)c1cc2cccc(Cl)c2c(=O)n1-c1ccccc1`, for which the Activity in assay [1] turned out to be 92.9%; in assay [2], 89.7%; in assay [3], 92.9%; in assay [4], 95.1%; in assay [5] it was 102%; in assay [6] it was 106%.
Regarding `CC[C@H](Nc1ncnc2[nH]cnc12)c1nc2cccc(F)c2c(=O)n1-c1ccccc1`, the Activity came out at 90.6% in assay [1]; 98.3% in assay [2]; 91% in assay [3]; 98.9% in assay [4]; 104% in assay [5]; 104% in assay [6].
Turning to `CC(C)Oc1ccc(-c2nn([C@@H](C)c3oc4ccc(F)cc4c(=O)c3-c3cccc(F)c3)c3ncnc(N)c23)cc1F` [UMBRALISIB], the Activity is 103% in assay [1]; 97.4% in assay [2]; 91.5% in assay [3]; 99.1% in assay [4]; 98.7% in assay [5]; 111% in assay [6].
